Details: Liquid, Vibrating tube method

F/C=C/C(F)(F)F [trans-1,3,3,3-tetrafluoropropene]
Details	mass density [kg/m3]
283.55 K, 99990 kPa	1403.02
283.56 K, 30000 kPa	1295.8
283.56 K, 40000 kPa	1316.15
283.56 K, 50000 kPa	1334.15
283.56 K, 60000 kPa	1350.35
283.56 K, 69990 kPa	1365.2
283.56 K, 79990 kPa	1378.71
283.56 K, 90000 kPa	1391.26
283.57 K, 1000 kPa	1211.68
283.57 K, 3000 kPa	1219.58
283.57 K, 5000 kPa	1227.04
283.57 K, 10000 kPa	1243.89
283.57 K, 15000 kPa	1258.79
283.57 K, 20000 kPa	1272.23
283.57 K, 25000 kPa	1284.48
293.41 K, 1000 kPa	1180.6
293.41 K, 3000 kPa	1189.81
293.41 K, 5000 kPa	1198.39
293.41 K, 10000 kPa	1217.4
293.41 K, 15000 kPa	1234.07
293.41 K, 20000 kPa	1248.82
293.41 K, 25000 kPa	1262.23
293.41 K, 30000 kPa	1274.5
293.41 K, 40000 kPa	1296.38
293.41 K, 50000 kPa	1315.5
293.41 K, 60000 kPa	1332.69
293.41 K, 69990 kPa	1348.45
293.41 K, 79990 kPa	1362.63
293.41 K, 100010 kPa	1387.95
293.42 K, 90000 kPa	1375.74
303.38 K, 1000 kPa	1149.74
303.38 K, 3000 kPa	1160.58
303.39 K, 5000 kPa	1170.47
303.39 K, 10000 kPa	1192.27
303.39 K, 15000 kPa	1210.87
303.39 K, 20000 kPa	1227.2
303.39 K, 25000 kPa	1241.85
303.39 K, 30000 kPa	1255.15
303.39 K, 40000 kPa	1278.68
303.39 K, 60000 kPa	1317.3
303.4 K, 50000 kPa	1299.13
303.4 K, 70000 kPa	1333.74
303.4 K, 80010 kPa	1348.59
303.4 K, 90000 kPa	1362.33
303.4 K, 100000 kPa	1375.04
313.33 K, 1000 kPa	1112.39
313.33 K, 3000 kPa	1125.51
313.34 K, 5000 kPa	1137.25
313.34 K, 10000 kPa	1162.32
313.35 K, 15000 kPa	1183.22
313.35 K, 20000 kPa	1201.24
313.35 K, 25000 kPa	1217.24
313.36 K, 30000 kPa	1231.65
313.36 K, 40000 kPa	1256.89
313.36 K, 80000 kPa	1330.76
313.36 K, 90000 kPa	1345.06
313.36 K, 99990 kPa	1358.3
313.37 K, 50000 kPa	1278.66
313.37 K, 60000 kPa	1297.92
313.37 K, 69990 kPa	1315.13
323.14 K, 1000 kPa	1074.03
323.15 K, 3000 kPa	1090.3
323.15 K, 5000 kPa	1104.41
323.15 K, 10000 kPa	1133.63
323.15 K, 15000 kPa	1157.19
323.15 K, 20000 kPa	1177.23
323.15 K, 25000 kPa	1194.71
323.15 K, 30000 kPa	1210.33
323.15 K, 40000 kPa	1237.43
323.15 K, 50000 kPa	1260.55
323.15 K, 60000 kPa	1280.78
323.15 K, 69990 kPa	1299.16
323.15 K, 80000 kPa	1315.46
323.15 K, 90000 kPa	1330.39
323.15 K, 100000 kPa	1344.16
333.06 K, 3000 kPa	1051.57
333.06 K, 5000 kPa	1068.99
333.07 K, 10000 kPa	1103.45
333.07 K, 15000 kPa	1130.26
333.07 K, 20000 kPa	1152.47
333.07 K, 25000 kPa	1171.67
333.08 K, 30000 kPa	1188.58
333.08 K, 40000 kPa	1217.68
333.08 K, 50000 kPa	1242.22
333.09 K, 60000 kPa	1263.59
333.09 K, 70000 kPa	1282.87
333.1 K, 79990 kPa	1299.88
333.1 K, 89990 kPa	1315.41
333.1 K, 99990 kPa	1329.71
343.06 K, 3000 kPa	1007.98
343.07 K, 5000 kPa	1030.29
343.07 K, 10000 kPa	1071.6
343.07 K, 15000 kPa	1102.25
343.07 K, 20000 kPa	1127.03
343.07 K, 25000 kPa	1148.05
343.07 K, 30000 kPa	1166.47
343.07 K, 40000 kPa	1197.69
343.07 K, 50000 kPa	1223.79
343.07 K, 60000 kPa	1246.3
343.07 K, 70000 kPa	1266.4
343.08 K, 79990 kPa	1284.18
343.08 K, 90000 kPa	1300.35
343.08 K, 100000 kPa	1315.2
352.97 K, 3000 kPa	957.49
352.97 K, 60000 kPa	1229.3
352.97 K, 70000 kPa	1250.62
352.97 K, 79990 kPa	1269.19
352.97 K, 89990 kPa	1285.98
352.97 K, 99990 kPa	1301.43
352.98 K, 5000 kPa	987.78
352.98 K, 15000 kPa	1073.64
352.98 K, 20000 kPa	1101.36
352.98 K, 25000 kPa	1124.45
352.98 K, 30000 kPa	1144.41
352.98 K, 40000 kPa	1177.85
352.98 K, 50000 kPa	1205.56
352.99 K, 10000 kPa	1038.43
362.93 K, 3000 kPa	894.35
362.93 K, 5000 kPa	939.3
362.94 K, 10000 kPa	1003.24
362.94 K, 15000 kPa	1044.15
362.94 K, 20000 kPa	1075.24
362.94 K, 25000 kPa	1100.62
362.94 K, 30000 kPa	1122.31
362.95 K, 40000 kPa	1158.16
362.95 K, 50000 kPa	1187.53
362.95 K, 60000 kPa	1212.48
362.95 K, 70010 kPa	1234.72
362.95 K, 80000 kPa	1254.07
362.96 K, 90000 kPa	1271.47
362.96 K, 99990 kPa	1287.46

Source: the NIST ThermoML archive (doi:10.1016/j.jct.2013.01.006)
